Laboratory results as given in the supplement of paper PMC3493320.

Test system: NCI-H295R
Experiment: IC50 (antiproliferative, ATP content)
Details: 48 h
How it was run: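 Serum-free ITS-supplemented DMEM was used to seed 1500 adrenocortical carcinoma cells per well in 1536-well plates, which were cultured overnight. Eight final concentrations of each library compound, from 0.6 nM to 46 µM, were added by pin transfer, followed by 48 h at 37 °C in 5% CO2 and a CellTiter-Glo ATP read after 20 min at room temperature. Luminescence was set against vehicle and positive-control wells, and the IC50 was obtained by logistic curve fitting. Any compound with no concentration response was entered as above the top dose.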

| IC50 | SMILES |
| --- | --- |
| > 46 µM | CC1(C)[C@@H](OC(=O)CCC(=O)[O-])CC[C@]2(C)[C@H]3C(=O)C=C4[C@@H]5C[C@@](C)(C(=O)[O-])CC[C@]5(C)CC[C@@]4(C)[C@]3(C)CC[C@@H]12.[Na+].[Na+] |
| > 46 µM | O=C(O)C1CCCN1 (stereo unspecified) |
| > 46 µM | O=c1[nH]cc(F)c(=O)[nH]1 |
| > 46 µM | Cl.Nc1ccn([C@@H]2O[C@H](CO)[C@@H](O)C2(F)F)c(=O)n1 |
| > 46 µM | CCCCN1C[C@H](O)[C@@H](O)[C@H](O)[C@H]1CO |
| > 46 µM | CCOC(=O)C1=C(C)NC(C)=C(C(=O)OC)C1c1cccc(Cl)c1Cl (stereo unspecified) |
| > 46 µM | CCCc1cc(C(N)=S)ccn1 |
| > 46 µM | CN1C2=CC(=O)C(=NNC(N)=O)C=C2CC1S(=O)(=O)[O-].[Na+] (stereo unspecified) |
| > 46 µM | CC(COc1ccccc1)N(CCCl)Cc1ccccc1 (stereo unspecified) |
| > 46 µM | Cc1cc(C(=O)NCCc2ccc(S(=O)(=O)NC(=O)NN3CCCCCC3)cc2)no1 |
| > 46 µM | O=C([O-])CN(CCN(CC(=O)[O-])CC(=O)[O-])CC(=O)[O-].[Fe+3].[Na+] |
| > 46 µM | COc1cc(-c2ccc(=O)[nH]n2)ccc1OC(F)F |
| > 46 µM | O=C1c2ccccc2CN2C(=O)c3ccccc3CN12 |
| > 46 µM | O=c1cc[nH]c(=S)[nH]1 |
| > 46 µM | CCOC(=O)C=C(C)C=CC=C(C)C=Cc1c(C)cc(OC)c(C)c1C |
| > 46 µM | CCC(C(=O)OCCN(CC)CC)c1ccccc1 (stereo unspecified) |
| > 46 µM | C=CCN1CCc2nc(N)sc2CC1 |
| > 46 µM | NC(=O)OCC(COC(N)=O)c1ccccc1 |
| > 46 µM | CCC1(C)CC(=O)NC1=O (stereo unspecified) |
| > 46 µM | O=C(O)COc1ccc(CCNS(=O)(=O)c2ccccc2)s1 |
| > 46 µM | C(N3C2)(SCC3)=N[C@H]2[C@@]1=CC=CC=C1.Cl |

| IC50 | SMILES |
| --- | --- |
| > 46 µM | O=C(O)c1cc(=O)c2ccccc2o1 |
| > 46 µM | Cc1cccc(C(=O)O)c1O |
| > 46 µM | COc1ccc(-c2cc(=S)ss2)cc1 |
| > 46 µM | O=C(O)c1ccccc1Nc1cccc(C(F)(F)F)c1 |
| > 46 µM | Nc1ccc(S(=O)(=O)NC(=O)c2ccccc2)cc1 |
| > 46 µM | CCCCCCCCCCCCCCCCCC(=O)OC[C@@H](O)[C@H]1OC[C@H](O)[C@H]1O |
| > 46 µM | CCN(CC)CCCC(C)Nc1cc(C=Cc2ccccc2Cl)nc2cc(Cl)ccc12 (stereo unspecified) |
| > 46 µM | CCOc1ccc(C(=O)OCCN(CC)CC)cc1 |
| > 46 µM | CCOC(=O)OC(C)OC(=O)[C@@H]1N2C(=O)[C@@H](NC(=O)[C@H](N)c3ccccc3)[C@H]2SC1(C)C.Cl (stereo partly specified) |
| > 46 µM | O=C(C2)N([C@]([H])1[C@@]([O-])=O)[C@]2([H])O\C1=C/CO.[Li+] |
| > 46 µM | COc1ccccc1O |
| > 46 µM | CC1CC(OC(=O)C(O)c2ccccc2)CC(C)(C)N1C.Cl (stereo unspecified) |
| > 46 µM | Cc1cccc(C)c1NC(=O)CN1CCCCCC1 |
| > 46 µM | COc1ccc2cc1Oc1cc3c(cc1OC)CC[N+](C)(C)[C@H]3Cc1ccc(cc1)Oc1c(OC)c(OC)cc3c1[C@@H](C2)[N+](C)(C)CC3.[I-].[I-] |
| > 46 µM | CC(C)(C)NCC(O)COc1cccc2c1CCC(=O)N2.Cl (stereo unspecified) |
| > 46 µM | CC1(c2ccccc2)OC(C(=O)O)=CC1=O (stereo unspecified) |
| > 46 µM | Cl.C/C(C)=N\Nc2c(cnc1c2cnn1CC)C(=O)OCC |
| > 46 µM | CC1CCc2cc(F)cc3c(=O)c(C(=O)O)cn1c23 (stereo unspecified) |
| > 46 µM | CC(=O)Oc1c(C)c(C)c2c(c1C)CC[C@@](C)(CCC[C@H](C)CCC[C@H](C)CCCC(C)C)O2 |
| > 46 µM | CC[C@@H](C)[C@H](N)C(=O)O |
| > 46 µM | O=C(O[C@H]1C[C@H]2CC3C[C@@H](C1)N2CC3=O)c1c[nH]c2ccccc12 |

| IC50 | SMILES |
| --- | --- |
| > 46 µM | CCCCCCCCCCCCCCCCCC[N+](C)(C)CCC[Si](OC)(OC)OC.[Cl-] |
| > 46 µM | NC(=O)CCCCC1CCSS1 (stereo unspecified) |
| > 46 µM | CC(=O)Nc1ccc(CC(=O)O)cc1 |
| > 46 µM | O=C(O)C[CH2][Ge](=[O])[O][Ge](=[O])[CH2]CC(=O)O |
| > 46 µM | CCCCC/C=C\C/C=C\CCCCCCCC(=O)OCC |
| > 46 µM | O=C2C=1/N=C\NC=1N(C)C(=O)N2C |
| > 46 µM | CCOc1ccc(/N=C(\C)Nc2ccc(OCC)cc2)cc1 |
| > 46 µM | CCCCOC(=O)c1ccc(O)cc1 |
| > 46 µM | CCCNCC(O)COc1ccccc1C(=O)CCc1ccccc1 (stereo unspecified) |
| > 46 µM | CN(C(=O)CN(CCO)CC(=O)N(C)C(C)(C)Cc1ccccc1)C(C)(C)Cc1ccccc1 |
| > 46 µM | CC1CCc2c(N3CCC(O)CC3)c(F)cc3c(=O)c(C(=O)O)cn1c23 (stereo unspecified) |
| > 46 µM | CC[N+](CC)(CC(=O)Nc1c(C)cccc1C)Cc1ccccc1.O=C([O-])c1ccccc1 |
| > 46 µM | O=C3N1/C(=C(\CS[C@@H]1[C@@H]3NC(=O)Cc2cccs2)C[n+]4ccccc4)C([O-])=O |
| > 46 µM | COC(c1ccccc1)(c1ccccc1)[C@H](Oc1nc(C)cc(C)n1)C(=O)O |
| > 46 µM | CC(=O)OCC(=O)NCCCOc1cccc(CN2CCCCC2)c1.Cl |
| > 46 µM | CC(=O)[C@H]1CC[C@H]2[C@@H]3C[C@H](C)C4=CC(=O)CC[C@]4(C)[C@H]3[C@@H](O)C[C@]12C |
| > 46 µM | CCCC(=O)Nc1c(I)cc(I)c(CC(CC)C(=O)[O-])c1I.[Na+] (stereo unspecified) |
| > 46 µM | Nc1nc(=O)c2c([nH]1)NCC(CNc1ccc(C(=O)N[C@@H](CCC(=O)[O-])C(=O)[O-])cc1)N2C=O.[Ca+2] (stereo partly specified) |
| > 46 µM | O=C(COc1ccc(Cl)cc1)OCCNC12CC3CC(CC(C3)C1)C2 |
| > 46 µM | O=C(O)[C@H]1CN(C/C=C/P(=O)(O)O)CCN1 |
| > 46 µM | COC(=O)C(CN)c1c[nH]c2ccc(OC)cc12.Cl (stereo unspecified) |

| IC50 | SMILES |
| --- | --- |
| > 46 µM | NCCc1cnc[nH]1 |
| > 46 µM | Cl.O=C1OC(CN2CCOCC2)CN1N=Cc1ccc([N+](=O)[O-])o1 (stereo unspecified) |
| > 46 µM | COc1ccc2c(=O)c(C)c(-c3ccccc3)oc2c1CN(C)C.Cl |
| > 46 µM | CC(=O)Nc1c(I)c(C(=O)N[C@H]2C(O)O[C@H](CO)[C@@H](O)[C@@H]2O)c(I)c(N(C)C(C)=O)c1I (stereo partly specified) |
| > 46 µM | NC(=O)c1cc[n+](CC2=C(C(=O)[O-])N3C(=O)[C@@H](NC(=O)[C@H](c4ccccc4)S(=O)(=O)[O-])[C@@H]3SC2)cc1.[Na+] |
| > 46 µM | CC(=O)[C@@]1(O)CC[C@H]2[C@@H]3CCC4=CC(=O)CC[C@]4(C)[C@H]3CC[C@@]21C |
| > 46 µM | OCC(=O)[C@@]2(O)CC[C@H]3[C@@H]4CC\C1=C\C(=O)CC[C@]1(C)[C@H]4[C@@H](O)C[C@]23C |
| > 46 µM | CC(=O)CC(c1ccccc1)c1c([O-])c2ccccc2oc1=O.[K+] (stereo unspecified) |
| > 46 µM | CCN(CCCCOC(=O)c1ccc(OC)c(OC)c1)C(C)Cc1ccc(OC)cc1.Cl (stereo unspecified) |
| > 46 µM | CC(C)(Oc1ccc(CCNC(=O)c2ccc(Cl)cc2)cc1)C(=O)O |
| > 46 µM | CC(=O)Nc1ccc(OC(=O)c2ccccc2OC(C)=O)cc1 |
| > 46 µM | CCN(CC)CCOc1ccc2c(c1)C(=O)c1cc(OCCN(CC)CC)ccc1-2 |
| > 46 µM | Cl.c1ccc2c(c1)CCCC2C1=NCCN1 (stereo unspecified) |
| > 46 µM | CCOC(=O)C(C)(C)Oc1ccc(Cl)cc1 |
| > 46 µM | C=CC[N@@H+]1/C(=C/CO)[C@@H]2C[C@H]3[C@H]1CC[C@]31c3ccccc3N3C=C4[C@@H]5N(C=C2[C@H]31)c1ccccc1[C@@]51CC[C@H]2[C@H]1C[C@@H]4/C(=C\CO)[N@@H+]2CC=C.[Cl-].[Cl-] |
| > 46 µM | O=C(O)Cn1c(C(=O)Nc2nc(-c3ccccc3Cl)cs2)cc2ccccc21 |
| > 46 µM | CC(=O)Oc1c(C)cc(OCC(O)CNC(C)C)c(C)c1C (stereo unspecified) |
| > 46 µM | NC(=S)NS(=O)(=O)c1ccc(N)cc1 |
| > 46 µM | CCn1cc(C(=O)O)c(=O)c2cnc(N3CCNCC3)nc21 |

| SMILES | IC50 |
| --- | --- |
| NC[C@@H]1O[C@H](O[C@H]2[C@@H](O)[C@H](O[C@@H]3[C@@H](O)[C@H](N)C[C@H](N)[C@H]3O[C@H]3O[C@H](CO)[C@@H](O)[C@H](O)[C@H]3N)O[C@@H]2CO)[C@H](N)[C@@H](O)[C@@H]1O.O=S(=O)(O)O | > 46 µM |
| Nc1c2c(nc3ccccc13)CCCC2O.O=C(O)/C=C\C(=O)O (stereo unspecified) | > 46 µM |
| O=[N+]([O-])c1ccc([As](=O)(O)O)cc1 | > 46 µM |
| Cc1ccccc1-n1c(CF)nc2ccc(N)cc2c1=O | > 46 µM |
| CCC1(c2cccc(O)c2)CCCCN(C)C1.Cl (stereo unspecified) | > 46 µM |
| CC1OC(C)OC(C)O1 (stereo unspecified) | > 46 µM |
| Nc1ccncc1 | > 46 µM |
| CN1C(=O)CCS(=O)(=O)C1c1ccc(Cl)cc1 (stereo unspecified) | > 46 µM |
| CC[N+]1(C)CCCC(OC(=O)C(O)(c2ccccc2)c2ccccc2)C1.[Br-] (stereo unspecified) | > 46 µM |
| CCN(Cc1ccc(Cl)nc1)/C(=C/[N+](=O)[O-])NC | > 46 µM |
| CC(NC(C)(C)C)C(=O)c1cccc(Cl)c1.Cl (stereo unspecified) | > 46 µM |
| CCCC(C)(COC(N)=O)COC(=O)NC1CC1 (stereo unspecified) | > 46 µM |
| CC[C@H](C)CCCCC(=O)N[C@@H](CCN)C(=O)N[C@H](C(=O)N[C@@H](CCN)C(=O)N[C@H]1CCNC(=O)[C@H]([C@@H](C)O)NC(=O)[C@H](CCN)NC(=O)[C@H](CCN)NC(=O)[C@H](CC(C)C)NC(=O)[C@@H](CC(C)C)NC(=O)[C@H](CCN)NC1=O)[C@@H](C)O.O=S(=O)(O)O | > 46 µM |
| CO/N=C1\CN(c2nc3c(cc2F)c(=O)c(C(=O)O)cn3C2CC2)CC1CN.CS(=O)(=O)O (stereo unspecified) | > 46 µM |
| O=[N+]([O-])C(Br)(CO)CO | > 46 µM |
| Cl.c1cc2c(c(N3CCNCC3)c1)OCCO2 | > 46 µM |
| C#C[C@]1(O)C=C[C@H]2[C@@H]3CCC4=CC(=O)CC[C@@H]4[C@H]3CC[C@@]21CC | > 46 µM |
| C#CC(C)(O)CC (stereo unspecified) | > 46 µM |
| CN(C)CCN(Cc1ccccc1)c1ccccn1.O=C(O)CC(O)(CC(=O)O)C(=O)O | > 46 µM |
